Results taken from ChEMBL document CHEMBL1201862, “PubChem BioAssay data set” (2004).
Active and inactive are the calls of the source. For most assays here, no stated cut-off is given here; in the data, actives have a measured EC50 and inactives only a lower limit.

How the values were obtained:
[1] = target: Voltage-dependent T-type calcium channel subunit alpha-1H (Homo sapiens, UniProt O95180); type: functional;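 further: channel activity triggered by adding a high calcium stimulation buffer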
Cytochrome P450 3A4 = Cytochrome P450 3A4 (Homo sapiens, UniProt P08684); settings: Potency;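 further: confirmatory qHTS run detecting inhibitors and substrates of CYP3A4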
Cytochrome P450 3A4, sequence (P08684 whole entry): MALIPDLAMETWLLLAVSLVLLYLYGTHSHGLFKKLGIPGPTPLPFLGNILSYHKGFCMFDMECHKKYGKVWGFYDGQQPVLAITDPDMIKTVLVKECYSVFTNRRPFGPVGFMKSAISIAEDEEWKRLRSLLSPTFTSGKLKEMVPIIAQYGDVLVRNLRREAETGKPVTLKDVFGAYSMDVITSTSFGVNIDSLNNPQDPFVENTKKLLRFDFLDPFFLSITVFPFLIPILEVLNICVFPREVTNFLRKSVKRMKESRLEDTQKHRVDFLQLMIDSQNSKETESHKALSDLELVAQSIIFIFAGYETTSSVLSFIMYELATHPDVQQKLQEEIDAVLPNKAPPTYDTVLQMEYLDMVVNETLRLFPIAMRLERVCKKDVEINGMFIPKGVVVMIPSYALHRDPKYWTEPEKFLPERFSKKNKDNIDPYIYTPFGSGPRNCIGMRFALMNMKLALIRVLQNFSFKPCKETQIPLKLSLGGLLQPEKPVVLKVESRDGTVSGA

cells [2] = type: functional, cell-based
cells [3] = type: functional, cell-based; remark: listed apart in the source
[4] = target: T1, Rac GTPase-activating protein 1 (Homo sapiens, UniProt Q9H0H5); test: MgcRacGAP GTPase-activating activity inhibitors, confirmation, biochemical, ADP Hunter fluorescence, primary and confirmatory (AID 624330); type: functional
T1 sequence (Q9H0H5 whole entry): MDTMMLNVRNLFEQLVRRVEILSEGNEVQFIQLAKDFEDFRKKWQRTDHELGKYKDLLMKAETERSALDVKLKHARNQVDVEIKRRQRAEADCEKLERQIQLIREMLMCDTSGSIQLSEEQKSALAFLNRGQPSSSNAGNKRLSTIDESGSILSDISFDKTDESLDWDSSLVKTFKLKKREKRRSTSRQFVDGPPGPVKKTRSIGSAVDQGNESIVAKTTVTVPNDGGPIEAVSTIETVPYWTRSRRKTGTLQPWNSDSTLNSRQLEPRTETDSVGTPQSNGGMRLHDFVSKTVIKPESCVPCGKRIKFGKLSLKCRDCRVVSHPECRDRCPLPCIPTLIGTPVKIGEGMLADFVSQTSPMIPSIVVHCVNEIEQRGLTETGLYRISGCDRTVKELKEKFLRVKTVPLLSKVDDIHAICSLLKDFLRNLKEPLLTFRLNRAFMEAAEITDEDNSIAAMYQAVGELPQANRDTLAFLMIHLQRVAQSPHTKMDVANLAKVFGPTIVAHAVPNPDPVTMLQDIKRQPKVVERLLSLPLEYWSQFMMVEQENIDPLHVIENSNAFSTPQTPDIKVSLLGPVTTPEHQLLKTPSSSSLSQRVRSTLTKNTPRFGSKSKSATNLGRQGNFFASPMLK

[5] = target: T2, Mannose-6-phosphate isomerase (Homo sapiens, UniProt P34949); test: human PMI inhibitors, high substrate, primary screen, biochemical, fluorescence intensity, high mannose 6-phosphate (AID 1220)
T2 sequence (P34949 whole entry): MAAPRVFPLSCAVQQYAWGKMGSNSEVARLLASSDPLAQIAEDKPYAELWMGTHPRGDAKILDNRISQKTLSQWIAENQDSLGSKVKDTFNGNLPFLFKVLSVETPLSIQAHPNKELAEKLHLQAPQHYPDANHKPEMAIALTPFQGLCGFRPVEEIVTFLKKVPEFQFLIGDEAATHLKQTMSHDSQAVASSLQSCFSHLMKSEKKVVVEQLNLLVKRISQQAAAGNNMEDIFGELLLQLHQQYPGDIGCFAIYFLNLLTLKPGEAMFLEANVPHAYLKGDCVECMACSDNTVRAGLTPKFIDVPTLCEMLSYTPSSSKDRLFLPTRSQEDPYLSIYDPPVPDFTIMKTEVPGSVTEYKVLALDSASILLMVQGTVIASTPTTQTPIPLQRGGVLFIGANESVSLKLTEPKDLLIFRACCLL

Protein RecA = target: T3, Protein RecA (Mycobacterium tuberculosis, UniProt P9WHJ3); test: Fluorescence Cell-Free Homogeneous Dose Retest to Identify Inhibitors of RecA-Intein Splicing Activity. [Related pubchem assays (depositor defined):AID2097, AID2223, AID489010, AID492950]; type: functional
T3 sequence (P9WHJ3 whole entry): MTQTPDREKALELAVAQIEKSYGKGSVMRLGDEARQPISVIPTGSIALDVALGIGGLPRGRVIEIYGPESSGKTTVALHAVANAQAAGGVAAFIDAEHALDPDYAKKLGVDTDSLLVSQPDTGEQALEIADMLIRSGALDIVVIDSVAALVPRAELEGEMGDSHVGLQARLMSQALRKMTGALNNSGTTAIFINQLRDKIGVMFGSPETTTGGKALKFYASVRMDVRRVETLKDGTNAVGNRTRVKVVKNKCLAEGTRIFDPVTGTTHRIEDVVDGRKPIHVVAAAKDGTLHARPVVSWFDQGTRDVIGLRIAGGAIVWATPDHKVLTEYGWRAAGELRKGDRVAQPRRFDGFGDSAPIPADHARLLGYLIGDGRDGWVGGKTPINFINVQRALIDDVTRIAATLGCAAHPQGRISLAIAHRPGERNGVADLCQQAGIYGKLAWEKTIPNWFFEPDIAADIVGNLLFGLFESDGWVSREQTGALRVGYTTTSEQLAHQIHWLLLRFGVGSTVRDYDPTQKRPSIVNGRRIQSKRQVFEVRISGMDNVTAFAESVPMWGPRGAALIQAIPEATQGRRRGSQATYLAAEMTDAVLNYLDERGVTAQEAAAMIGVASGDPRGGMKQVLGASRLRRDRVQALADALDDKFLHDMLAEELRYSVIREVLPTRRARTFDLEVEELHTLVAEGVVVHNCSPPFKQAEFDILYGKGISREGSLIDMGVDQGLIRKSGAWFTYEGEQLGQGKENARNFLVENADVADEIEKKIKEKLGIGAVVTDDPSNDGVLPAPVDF

[6] = target: T4, Replicative DNA helicase DnaB (Mycobacterium tuberculosis, UniProt P9WMR3); test: DnaB intein splicing inhibitors, dose response, biochemical, cell-free fluorescence (AID 449749); type: functional
T4 sequence (P9WMR3 whole entry): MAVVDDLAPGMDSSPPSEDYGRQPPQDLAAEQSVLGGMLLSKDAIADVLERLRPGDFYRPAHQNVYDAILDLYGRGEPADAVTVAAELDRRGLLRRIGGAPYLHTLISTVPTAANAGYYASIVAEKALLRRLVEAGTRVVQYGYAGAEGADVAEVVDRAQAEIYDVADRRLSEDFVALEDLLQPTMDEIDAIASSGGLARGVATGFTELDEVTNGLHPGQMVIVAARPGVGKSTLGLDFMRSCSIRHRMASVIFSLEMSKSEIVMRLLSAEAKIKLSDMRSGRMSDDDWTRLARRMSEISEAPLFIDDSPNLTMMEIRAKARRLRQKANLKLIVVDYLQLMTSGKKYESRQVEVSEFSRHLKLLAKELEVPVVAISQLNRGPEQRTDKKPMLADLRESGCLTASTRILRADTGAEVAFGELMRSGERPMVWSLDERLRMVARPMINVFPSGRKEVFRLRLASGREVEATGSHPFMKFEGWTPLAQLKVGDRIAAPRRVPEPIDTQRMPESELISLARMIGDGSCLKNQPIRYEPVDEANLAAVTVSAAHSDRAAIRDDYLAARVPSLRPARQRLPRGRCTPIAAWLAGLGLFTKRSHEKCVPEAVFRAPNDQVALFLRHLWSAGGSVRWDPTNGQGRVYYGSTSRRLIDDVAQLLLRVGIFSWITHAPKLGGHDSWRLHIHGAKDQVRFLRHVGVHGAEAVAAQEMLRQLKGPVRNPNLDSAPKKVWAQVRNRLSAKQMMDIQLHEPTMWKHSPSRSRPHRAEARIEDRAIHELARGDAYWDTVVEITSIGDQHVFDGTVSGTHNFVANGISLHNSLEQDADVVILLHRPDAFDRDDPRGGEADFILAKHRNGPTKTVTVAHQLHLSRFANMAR

[7] = inhibitors of SNCA 5'UTR-driven reporter translation, confirmation, H4 neuroglioma cells, luminescence (AID 1988); type: functional, cell-based
[8] = inhibitors of firefly luciferase expression or activity, dose response, H4 neuroglioma cells, luminescence (AID 1990); type: functional, cell-based
[9] = Luminescence Cell-Based Dose Response HTS to Identify Inhibitors of 5'UTR Stem-Loop Driven Prion Protein mRNA Translation in H4 Neuroglioblastoma Cells. [Related pubchem assays: 1827 (Project Summary), 1813 (Primary HTS)]; type: functional
HEK293 = test: inhibitors of LMP1-driven NF-kB reporter, dose response, cell-based, HEK293, luciferase, cherry-pick (AID 588343); type: functional; settings: Homo sapiens
[10] = cytotoxicity in HEK-293T cells, dose response, cytotoxicity control for BCR NF-kB inhibitor project, luminescence, B-cell screen hits (AID 489021); type: functional, cell-based;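 further: HEK-293T cells carrying an NF-kB luciferase reporter; cells exposed to compound for about 14 hours before viability readout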
[11] = target: T5, Acyl-homoserine lactone acylase PvdQ (Pseudomonas aeruginosa (strain LESB58), UniProt Q9I194); test: P. aeruginosa PvdQ acylase inhibitors, dose response, biochemical, fluorescence, plate reader and imaging, cherry-picks (AID 493231)
T5 sequence (Q9I194 whole entry): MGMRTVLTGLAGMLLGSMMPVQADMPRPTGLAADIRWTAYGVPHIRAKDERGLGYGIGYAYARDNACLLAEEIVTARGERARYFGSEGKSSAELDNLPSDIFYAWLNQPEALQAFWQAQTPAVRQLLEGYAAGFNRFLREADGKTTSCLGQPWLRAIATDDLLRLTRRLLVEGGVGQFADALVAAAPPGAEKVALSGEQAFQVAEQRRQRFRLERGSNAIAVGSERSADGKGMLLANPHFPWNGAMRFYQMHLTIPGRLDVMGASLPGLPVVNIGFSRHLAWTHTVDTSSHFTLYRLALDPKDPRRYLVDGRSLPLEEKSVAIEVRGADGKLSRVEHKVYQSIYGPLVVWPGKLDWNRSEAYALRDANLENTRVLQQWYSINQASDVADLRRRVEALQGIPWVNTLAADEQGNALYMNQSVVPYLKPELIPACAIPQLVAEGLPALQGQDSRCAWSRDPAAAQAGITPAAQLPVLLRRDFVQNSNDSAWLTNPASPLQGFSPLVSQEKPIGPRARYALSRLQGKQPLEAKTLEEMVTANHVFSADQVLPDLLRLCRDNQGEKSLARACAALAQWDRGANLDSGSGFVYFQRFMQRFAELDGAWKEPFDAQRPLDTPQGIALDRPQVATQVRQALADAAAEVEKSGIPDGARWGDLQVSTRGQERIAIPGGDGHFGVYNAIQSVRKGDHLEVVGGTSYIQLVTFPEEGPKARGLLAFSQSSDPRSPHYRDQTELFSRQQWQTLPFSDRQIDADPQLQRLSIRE

BJ [12] = test: cytotoxicity toward BJ-TERT fibroblasts, dose response, cell-based, RAS-independent, luminescence (AID 1933); type: functional, Homo sapiens; settings: Homo sapiens, BJ
BJ [13] = test: cytotoxicity toward BJ-TERT-LT-ST fibroblasts, dose response, cell-based, RAS-independent, luminescence (AID 1935); type: functional, Homo sapiens; settings: Homo sapiens, BJ;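 further: BJ fibroblasts immortalized with TERT plus LT and ST oncogenes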
BJ [14] = test: cells; type: functional, cell-based, Homo sapiens; settings: Homo sapiens, BJ
[15] = cytotoxicity toward DRD oncogenic fibroblasts, dose response, cell-based, non-viral oncogenic, luminescence (AID 1934); type: functional; settings: Homo sapiens
INS1 = test: beta cell apoptosis inhibitors, cytokine rescue, dose response, luminescence, retest (AID 449756); type: functional, cell-based; settings: Rattus norvegicus;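 further: cell death triggered by IL-1 beta plus TNF-alpha plus IFN-gamma mixture; protective hits raise ATP signal compared with cytokine alone wells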
[16] = C. albicans growth with fluconazole, confirmation, fluorescence, retest (AID 2467); type: functional, cell-based
[17] = NIH-3T3 fibroblast cytotoxicity, dose response, cytotoxicity control, cell-based, fluorescence, Alamar Blue, secondary assay (AID 2327); type: functional;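 further: NIH-3T3 mouse fibroblasts cultured with fluconazole at 8 µg/mL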

Voltage-dependent T-type calcium channel subunit alpha-1H, sequence (O95180 whole entry): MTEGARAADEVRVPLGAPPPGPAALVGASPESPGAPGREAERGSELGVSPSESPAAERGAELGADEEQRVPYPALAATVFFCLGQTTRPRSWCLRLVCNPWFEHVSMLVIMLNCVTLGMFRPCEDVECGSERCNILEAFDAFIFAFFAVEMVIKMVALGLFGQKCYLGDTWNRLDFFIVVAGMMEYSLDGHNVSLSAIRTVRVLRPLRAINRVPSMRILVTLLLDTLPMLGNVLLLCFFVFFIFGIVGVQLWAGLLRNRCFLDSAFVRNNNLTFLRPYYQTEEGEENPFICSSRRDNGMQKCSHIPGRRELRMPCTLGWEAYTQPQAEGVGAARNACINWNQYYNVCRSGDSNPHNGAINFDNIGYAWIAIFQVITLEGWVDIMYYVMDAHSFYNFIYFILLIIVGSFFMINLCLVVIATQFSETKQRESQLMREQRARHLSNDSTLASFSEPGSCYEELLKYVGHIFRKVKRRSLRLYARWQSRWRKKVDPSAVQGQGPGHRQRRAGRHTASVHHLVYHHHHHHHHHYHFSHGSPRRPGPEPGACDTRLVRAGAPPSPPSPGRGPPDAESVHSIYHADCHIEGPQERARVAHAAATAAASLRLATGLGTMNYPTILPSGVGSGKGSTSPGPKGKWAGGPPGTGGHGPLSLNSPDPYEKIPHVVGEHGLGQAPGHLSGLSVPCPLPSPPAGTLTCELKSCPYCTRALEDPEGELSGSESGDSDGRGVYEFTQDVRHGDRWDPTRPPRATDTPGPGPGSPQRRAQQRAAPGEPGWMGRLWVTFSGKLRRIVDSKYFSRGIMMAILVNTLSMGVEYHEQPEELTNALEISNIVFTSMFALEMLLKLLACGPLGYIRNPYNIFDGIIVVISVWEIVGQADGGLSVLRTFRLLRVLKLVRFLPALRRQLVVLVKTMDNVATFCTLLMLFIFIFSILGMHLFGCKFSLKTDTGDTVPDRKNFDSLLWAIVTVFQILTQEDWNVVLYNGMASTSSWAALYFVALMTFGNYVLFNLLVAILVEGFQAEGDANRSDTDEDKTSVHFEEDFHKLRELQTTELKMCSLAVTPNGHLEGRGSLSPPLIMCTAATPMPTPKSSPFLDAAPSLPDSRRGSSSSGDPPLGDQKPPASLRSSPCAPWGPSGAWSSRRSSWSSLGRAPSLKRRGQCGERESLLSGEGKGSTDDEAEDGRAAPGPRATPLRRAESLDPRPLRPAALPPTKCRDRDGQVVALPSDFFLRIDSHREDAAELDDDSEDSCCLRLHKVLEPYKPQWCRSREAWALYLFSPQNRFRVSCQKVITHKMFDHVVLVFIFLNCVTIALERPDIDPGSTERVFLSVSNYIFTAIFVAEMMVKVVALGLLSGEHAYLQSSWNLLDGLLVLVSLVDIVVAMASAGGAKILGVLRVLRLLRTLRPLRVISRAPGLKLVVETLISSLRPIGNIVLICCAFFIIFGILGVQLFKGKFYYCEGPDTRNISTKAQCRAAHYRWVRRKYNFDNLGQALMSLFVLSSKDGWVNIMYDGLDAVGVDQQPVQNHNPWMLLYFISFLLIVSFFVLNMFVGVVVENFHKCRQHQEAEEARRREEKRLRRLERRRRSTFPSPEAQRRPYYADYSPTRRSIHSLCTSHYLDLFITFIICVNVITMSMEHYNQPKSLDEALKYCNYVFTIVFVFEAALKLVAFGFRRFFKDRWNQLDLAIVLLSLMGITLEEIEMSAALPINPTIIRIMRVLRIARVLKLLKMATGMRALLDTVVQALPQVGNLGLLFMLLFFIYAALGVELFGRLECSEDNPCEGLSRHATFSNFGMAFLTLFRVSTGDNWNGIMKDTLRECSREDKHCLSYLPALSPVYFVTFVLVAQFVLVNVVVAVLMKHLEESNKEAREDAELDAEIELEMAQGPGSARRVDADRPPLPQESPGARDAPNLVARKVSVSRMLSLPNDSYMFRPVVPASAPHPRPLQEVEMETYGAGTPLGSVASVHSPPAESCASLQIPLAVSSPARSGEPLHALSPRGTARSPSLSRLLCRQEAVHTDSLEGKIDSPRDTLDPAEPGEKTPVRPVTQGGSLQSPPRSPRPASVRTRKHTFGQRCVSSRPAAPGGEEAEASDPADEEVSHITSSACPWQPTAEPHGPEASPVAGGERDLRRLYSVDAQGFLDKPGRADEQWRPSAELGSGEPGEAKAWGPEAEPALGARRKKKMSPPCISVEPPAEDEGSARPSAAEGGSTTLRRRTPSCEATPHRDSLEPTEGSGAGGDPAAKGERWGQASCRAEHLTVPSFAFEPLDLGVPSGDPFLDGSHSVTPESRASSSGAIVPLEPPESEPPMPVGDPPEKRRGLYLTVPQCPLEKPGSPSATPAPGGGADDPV

Structure (SMILES): Cc1nn(Cc2ccccc2)c(C)c1NC(=O)c1cc(-c2ccco2)on1
- EC50 [1]: 9.33 µM (active)

Structure (SMILES): O=C(CN1CCN(c2ccccn2)CC1)N(c1ccccc1)c1ccc2ccccc2c1
- EC50 [1]: 6.52 µM (active)

Structure (SMILES): Cc1nc(N2CCOCC2)c2nc(-c3ccccc3)n(CCN3CCCC3)c2n1
- AC50 (Cytochrome P450 3A4): 20 µM (inconclusive)

Structure (SMILES): COc1cc(O)c2c(=O)cc(C)oc2c1CC=C(C)C [HETEROPEUCENIN, METHYL ETHER]
- AC50 (Cytochrome P450 3A4): 39.8 µM (inconclusive)

Structure (SMILES): CCN(CC)CCCCn1c(-c2ccccc2)nc2c(NC3CCCCC3)nc(C)nc21
- AC50 (Cytochrome P450 3A4): 25.1 µM (inconclusive)

Structure (SMILES): Cc1nc(NCCc2ccccc2)c(C#N)c(C)c1[N+](=O)[O-]
- EC50 (cells [2]): > 350 µM (not active)
- EC50 (cells [3]): > 350 µM (not active)

Structure (SMILES): CCOc1cc(/C=N/NC(=O)c2c(-c3ccccc3)noc2C)ccc1O
- IC50 [4]: 55.5 µM (active)
- EC50 (cells [2]): > 350 µM (not active)
- EC50 (cells [3]): > 350 µM (not active)

Structure (SMILES): CCOc1cc(N2CCOCC2)c(OCC)cc1N=C(S)NCCCOC
- IC50 [5]: > 50 µM (not active)

Structure (SMILES): CCCc1n[nH]c2c1C(c1ccoc1)C(C#N)=C(N)O2 (stereo not drawn)
- EC50 (Protein RecA): 2.39 µM (active)
- EC50 (cells [2]): > 350 µM (not active)
- AC50 [6]: 4.51 µM (active)
- EC50 (cells [3]): > 350 µM (not active)

Structure (SMILES): Cc1ccccc1NC(=O)c1ccc(CN2CCc3ccccc3C2)cc1
- EC50 [1]: 2.28 µM (active)

Structure (SMILES): O=C(CCCN1C(=O)/C(=C/c2ccccc2Cl)SC1=S)NNC(=O)c1ccccc1Cl
- EC50 [7]: 7.8 µM (active)
- EC50 [8]: 5.95 µM (active)
- EC50 [9]: 10.5 µM (active)
- AC50 (HEK293): 9.18 µM (active)
- IC50 [10]: > 80 µM (inactive)

Structure (SMILES): O=C1C=C(c2cc(F)ccc2F)C[C@@H](c2ccc(F)cc2)C1
- AC50 [11]: 9.05 µM (active)

Structure (SMILES): CCOCCCNc1nc2c(C)cccn2c(=O)c1/C=C1\SC(=S)N(C(C)CC)C1=O (stereo not drawn)
- EC50 (BJ [12]): > 150 µM (not active)
- EC50 (BJ [13]): > 150 µM (inconclusive)
- EC50 (BJ [14]): > 150 µM (not active)
- IC50 [10]: > 80 µM (inactive)
- EC50 [15]: 38.5 µM (active)

Structure (SMILES): C/C(=N\NC(=O)CN1CCCCC1)c1ccccc1O
- EC50 (cells [2]): > 350 µM (not active)
- EC50 (cells [3]): 29.7 µM (active)

Structure (SMILES): Cc1ccccc1-n1c(SCc2c(C)noc2C)nnc1-c1c[nH]c2ccccc12
- IC50 [10]: > 80 µM (inactive)

Structure (SMILES): Nc1nc[nH]n1 [AMITROLE]
- AC50 (Cytochrome P450 3A4): 15.8 µM (inconclusive)

Structure (SMILES): Cc1ccc(/C=N/NC(=O)c2c(-c3ccccc3)noc2C)c(O)c1
- EC50 (cells [2]): > 350 µM (not active)
- AC50 (INS1): 2.33 µM (active)
- EC50 [16]: 2.83 µM (active)
- EC50 [17]: > 150 µM (inactive)
- EC50 (cells [3]): 12.4 µM (active)

Structure (SMILES): O=S1(=O)CCOC[C@H](c2ccccc2)N1Cc1cccc(Cl)c1
- AC50 [11]: 12.7 µM (active)

Structure (SMILES): Brc1ccc(-c2nnc(-c3ccco3)o2)cc1
- AC50 [11]: 46.2 µM (active)
